Results from patent US10869848B2 (priority 2014, dated 2020).

Columns and labels:
[1] = Visual solubility of carmustine in alcoholic solvents; format: physicochemical
[2] = alcohol such as tertiary butanol; cited from earlier work
[3] = Stability of carmustine solution in TBA or dehydrated ethanol; format: physicochemical; conditions: storage at room temperature

Which results are given for O=NN(CCCl)C(=O)NCCCl [Carmustine, 1,3-bis (2-chloroethyl)-1-nitrosourea]?
precipitation on storage, TBA solution ([1]; TBA solution stored at about 2 to about 8° C.): Neither of the solutions showed any sign of precipitation; solubility in TBA ([1]; TBA, room temperature, visually determined): > 1 g per mL; precipitation on storage, dehydrated ethanol solution ([1]; dehydrated ethanol solution stored at about 2 to about 8° C.): Neither of the solutions showed any sign of precipitation; solubility in dehydrated ethanol ([1]; dehydrated ethanol, room temperature, visually determined): > 1 g per mL; solubility in alcohol, dichloromethane and ether [2]: very soluble; time solution is stable, TBA ([3]; solution in TBA): at least 24 hrs; time solution is stable, dehydrated ethanol ([3]; solution in dehydrated ethanol): at least 24 hrs
